Assay results taken from ChEMBL document CHEMBL3132827, “Quinazoline and tetrahydropyridothieno[2,3-d]pyrimidine derivatives as irreversible EGFR tyrosine kinase inhibitors: influence of the position 4 substituent” (Medchemcomm, 2013).

Legend:
[1] = Cytotoxicity against human SKBR3 cells expressing wild type EGFR assessed as growth inhibition incubated for 1 hr prior to EGF challenge measured after 72 hrs by luciferase reporter gene assay; assay type: functional, cell-based; details: SK-BR-3
NCI-H1975 = experiment: cells; assay type: functional, cell-based; details: Homo sapiens
[2] = molecular target: Epidermal growth factor receptor (Homo sapiens, UniProt P00533, L858R/T790M); assay type: cell-based, NCI-H1975
Chain of Epidermal growth factor receptor (Homo sapiens, UniProt P00533, L858R/T790M) (P00533 25-1210 T790M/L858R limits assumed): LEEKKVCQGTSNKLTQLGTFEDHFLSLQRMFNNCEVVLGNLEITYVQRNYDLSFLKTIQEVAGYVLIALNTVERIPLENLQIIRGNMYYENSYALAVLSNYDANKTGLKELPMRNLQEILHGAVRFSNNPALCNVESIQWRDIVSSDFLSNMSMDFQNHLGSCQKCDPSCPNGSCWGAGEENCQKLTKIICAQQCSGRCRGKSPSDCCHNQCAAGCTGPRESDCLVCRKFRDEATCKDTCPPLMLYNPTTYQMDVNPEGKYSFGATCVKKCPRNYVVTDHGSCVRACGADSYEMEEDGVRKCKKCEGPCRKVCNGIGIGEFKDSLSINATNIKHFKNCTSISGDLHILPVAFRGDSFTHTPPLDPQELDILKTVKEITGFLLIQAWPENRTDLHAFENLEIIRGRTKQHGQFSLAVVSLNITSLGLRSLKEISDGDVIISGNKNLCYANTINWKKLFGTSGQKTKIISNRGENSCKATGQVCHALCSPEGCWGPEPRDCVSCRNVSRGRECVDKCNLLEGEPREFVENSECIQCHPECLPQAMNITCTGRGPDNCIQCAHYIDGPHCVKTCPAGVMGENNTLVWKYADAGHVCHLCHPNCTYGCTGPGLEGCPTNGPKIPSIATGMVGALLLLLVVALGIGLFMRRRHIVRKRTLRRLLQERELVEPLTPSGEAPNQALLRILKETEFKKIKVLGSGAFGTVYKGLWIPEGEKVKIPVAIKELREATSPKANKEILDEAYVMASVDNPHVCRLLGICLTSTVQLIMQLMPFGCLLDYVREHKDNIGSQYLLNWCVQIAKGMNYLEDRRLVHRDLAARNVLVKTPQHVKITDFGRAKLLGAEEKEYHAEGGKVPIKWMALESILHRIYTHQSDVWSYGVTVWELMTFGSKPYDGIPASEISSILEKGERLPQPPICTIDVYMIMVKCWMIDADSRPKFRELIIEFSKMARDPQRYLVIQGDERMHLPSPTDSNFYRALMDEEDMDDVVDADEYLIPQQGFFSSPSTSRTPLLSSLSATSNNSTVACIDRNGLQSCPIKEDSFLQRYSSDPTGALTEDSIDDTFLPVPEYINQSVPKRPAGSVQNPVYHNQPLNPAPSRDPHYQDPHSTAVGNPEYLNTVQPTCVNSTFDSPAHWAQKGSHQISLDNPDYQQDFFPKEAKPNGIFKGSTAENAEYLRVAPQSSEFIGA

[3] = molecular target: Epidermal growth factor receptor (Homo sapiens, UniProt P00533); experiment: Inhibition of recombinant wild type EGFR kinase(unknown origin) after 30 mins in presence of [gamma32P]ATP
Chain of Epidermal growth factor receptor (Homo sapiens, UniProt P00533) (P00533 whole entry): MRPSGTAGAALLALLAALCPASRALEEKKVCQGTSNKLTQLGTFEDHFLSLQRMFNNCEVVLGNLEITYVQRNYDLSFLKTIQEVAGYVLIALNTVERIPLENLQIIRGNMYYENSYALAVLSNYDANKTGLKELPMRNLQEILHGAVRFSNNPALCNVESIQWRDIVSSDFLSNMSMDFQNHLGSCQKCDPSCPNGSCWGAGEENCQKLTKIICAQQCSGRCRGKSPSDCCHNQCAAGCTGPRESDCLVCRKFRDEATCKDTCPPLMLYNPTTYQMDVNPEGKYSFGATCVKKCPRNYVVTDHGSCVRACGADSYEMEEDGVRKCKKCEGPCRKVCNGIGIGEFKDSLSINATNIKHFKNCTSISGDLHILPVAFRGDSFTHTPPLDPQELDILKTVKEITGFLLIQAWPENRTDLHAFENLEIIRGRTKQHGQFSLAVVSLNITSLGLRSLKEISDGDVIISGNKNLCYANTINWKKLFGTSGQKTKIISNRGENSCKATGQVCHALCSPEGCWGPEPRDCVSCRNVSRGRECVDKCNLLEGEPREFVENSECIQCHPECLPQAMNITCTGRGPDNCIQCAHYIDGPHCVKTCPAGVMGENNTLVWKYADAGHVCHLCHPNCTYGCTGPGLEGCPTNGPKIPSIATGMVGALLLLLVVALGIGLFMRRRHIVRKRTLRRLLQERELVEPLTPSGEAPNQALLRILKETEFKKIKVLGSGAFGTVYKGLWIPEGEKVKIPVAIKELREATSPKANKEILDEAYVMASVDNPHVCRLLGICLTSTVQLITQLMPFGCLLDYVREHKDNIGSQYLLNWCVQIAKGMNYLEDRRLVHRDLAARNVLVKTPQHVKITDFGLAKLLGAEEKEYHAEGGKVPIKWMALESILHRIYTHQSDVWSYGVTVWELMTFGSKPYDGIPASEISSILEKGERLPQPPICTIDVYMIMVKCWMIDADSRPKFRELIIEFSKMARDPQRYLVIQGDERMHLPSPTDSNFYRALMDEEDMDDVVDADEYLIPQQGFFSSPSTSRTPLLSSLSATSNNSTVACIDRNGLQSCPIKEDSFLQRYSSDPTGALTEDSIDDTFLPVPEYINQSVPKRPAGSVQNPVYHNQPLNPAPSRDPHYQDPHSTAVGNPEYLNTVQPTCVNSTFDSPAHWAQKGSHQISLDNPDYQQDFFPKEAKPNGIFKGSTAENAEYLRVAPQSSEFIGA

C=CC(=O)Nc1ccc2ncnc(Nc3cccc(Br)c3)c2c1
IC50 [1]: 200 nM
IC50 (NCI-H1975): 440 nM

C=CC(=O)N1CCc2c(sc3ncnc(Nc4ccc(CC)cc4)c23)C1
IC50 [1]: 6200 nM
IC50 [2]: 130 nM
IC50 (NCI-H1975): 15200 nM
IC50 [3]: 7.38 nM

C=CC(=O)Nc1ccc2ncnc(Nc3ccc(S(=O)(=O)Nc4ccccn4)cc3)c2c1
IC50 [1]: 390 nM
IC50 [2]: 4390 nM
IC50 (NCI-H1975): > 40000 nM
IC50 [3]: 9.8 nM

C=CC(=O)Nc1ccc2ncnc(Nc3ccc(S(=O)(=O)Nc4nccs4)cc3)c2c1
IC50 [1]: 4000 nM
IC50 (NCI-H1975): > 40000 nM
IC50 [3]: 43.7 nM

C=CC(=O)N1CCc2c(sc3ncnc(Nc4cccc(C)c4F)c23)C1
IC50 [1]: 1400 nM
IC50 [2]: 280 nM
IC50 (NCI-H1975): 33800 nM
IC50 [3]: 3.95 nM

C=CC(=O)Nc1ccc2ncnc(Nc3ccc(Br)c(OC)c3)c2c1
IC50 [1]: 360 nM
IC50 (NCI-H1975): 400 nM
IC50 [3]: 2.5 nM

C=CC(=O)Nc1ccc2ncnc(Nc3cccc(C)c3F)c2c1
IC50 [1]: 1860 nM
IC50 [2]: 111000 nM
IC50 (NCI-H1975): 390 nM
IC50 [3]: 1.5 nM

C=CC(=O)N1CCc2c(sc3ncnc(NC4CCCCC4)c23)C1
IC50 [1]: > 40000 nM
IC50 [2]: > 5000 nM
IC50 (NCI-H1975): > 40000 nM
IC50 [3]: > 150 nM

C=CC(=O)Nc1ccc2ncnc(Nc3ccc(Br)c(C)c3)c2c1
IC50 [1]: 1420 nM
IC50 (NCI-H1975): 1820 nM
IC50 [3]: 2.3 nM

C=CC(=O)N1CCc2c(sc3ncnc(Nc4cccc(CC)c4)c23)C1
IC50 [1]: 3200 nM
IC50 (NCI-H1975): 23800 nM
IC50 [3]: 8.73 nM

C=CC(=O)Nc1ccc2ncnc(Nc3ccccc3CC)c2c1
IC50 [1]: 7700 nM
IC50 [2]: 2000 nM
IC50 (NCI-H1975): 16000 nM
IC50 [3]: 18.9 nM

C=CC(=O)Nc1ccc2ncnc(Nc3ccc(CC)cc3)c2c1
IC50 [1]: 1140 nM
IC50 (NCI-H1975): 15700 nM
IC50 [3]: 3.2 nM

C=CC(=O)Nc1ccc2ncnc(Nc3ccc(Br)cc3C)c2c1
IC50 [1]: 630 nM
IC50 (NCI-H1975): 1860 nM
IC50 [3]: 2.2 nM

C=CC(=O)Nc1ccc2ncnc(Nc3c(F)cccc3Br)c2c1
IC50 [1]: 230 nM
IC50 (NCI-H1975): 260 nM
IC50 [3]: 2.2 nM

C=CC(=O)N1CCc2c(sc3ncnc(Nc4ccc(Br)c(C)c4)c23)C1
IC50 [1]: > 40000 nM
IC50 (NCI-H1975): > 40000 nM
IC50 [3]: 4.4 nM

C=CC(=O)Nc1ccc2ncnc(NC3CCCCC3)c2c1
IC50 [1]: 400 nM
IC50 [2]: 2800 nM
IC50 (NCI-H1975): > 40000 nM
IC50 [3]: 3.4 nM

C=CC(=O)Nc1ccc2ncnc(Nc3ccc(S(N)(=O)=O)cc3)c2c1
IC50 [1]: 2500 nM
IC50 (NCI-H1975): > 40000 nM
IC50 [3]: 76.5 nM

C=CC(=O)Nc1ccc2ncnc(Nc3ccc(S(=O)(=O)NC(=N)N)cc3)c2c1
IC50 [1]: > 40000 nM
IC50 (NCI-H1975): > 40000 nM
IC50 [3]: 53.3 nM

C=CC(=O)N1CCc2c(sc3ncnc(Nc4ccc(Br)cc4F)c23)C1
IC50 [1]: 2300 nM
IC50 (NCI-H1975): > 40000 nM
IC50 [3]: 3.71 nM

C=CC(=O)Nc1ccc2ncnc(Nc3cccc(CC)c3)c2c1
IC50 [1]: 2820 nM
IC50 [2]: 275 nM
IC50 (NCI-H1975): 680 nM
IC50 [3]: 2.7 nM

C=CC(=O)Nc1ccc2ncnc(Nc3ccc(OC)cc3OC)c2c1
IC50 [1]: 6890 nM
IC50 (NCI-H1975): 13900 nM

C=CC(=O)Nc1ccc2ncnc(Nc3ccc(Br)cc3F)c2c1
IC50 [1]: 510 nM
IC50 [2]: 36 nM
IC50 (NCI-H1975): 280 nM
IC50 [3]: 2.1 nM
